Laboratory results published in US5605929A, “Methods and compositions for inhibiting 5α-reductase activity” (priority 1995, dated 1997).
Read-outs that look alike come from different tables or passages of the source.

How the values were obtained:
[1] = molecular target: T1, 5α-Reductase of Rat Liver Microsomes (Rattus norvegicus, UniProt P24008); test: [3H]4-MA binding assay, rat liver microsomes (tea catechins); conditions: for inhibition at 5 µM / inhibition at 10 µM / inhibition at 20 µM / inhibition at 40 µM / inhibition at 200 µM: read-out: % Inhibition of [^3 H]4-MA binding; for inhibitory activity: concentrations up to 200 μM
T1 sequence (P24008 1-259): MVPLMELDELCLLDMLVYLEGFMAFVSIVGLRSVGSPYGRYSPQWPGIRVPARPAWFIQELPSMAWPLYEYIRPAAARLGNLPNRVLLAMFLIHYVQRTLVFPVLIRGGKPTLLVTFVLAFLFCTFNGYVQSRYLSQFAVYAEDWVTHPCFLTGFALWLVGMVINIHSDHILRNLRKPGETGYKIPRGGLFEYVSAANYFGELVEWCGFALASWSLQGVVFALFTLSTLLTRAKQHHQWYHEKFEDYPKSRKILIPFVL
Method: Microsomes were prepared as described previously (Liang and Liao, 1992) from the liver of adult Sprague-Dawley female rats or Rat-1A cells expressing a specific type of human 5α-reductase. Each study was carried out in duplicate or triplicate which were usually within 10% of each other. Several studies were preformed to assure that the results shown are representative. The data presented was based on the rate of reaction.
[^3 H]4-MA binding assay were described in detail previously (Liang and Liao, 1992; Liang et al., 1983). […] The reaction was started by the addition of 25 μl of microsomes (25 μg protein). After 30-60 min incubation at 0° C., the [^3 H]4-MA bound to microsomes was collected on a Whatman GF/F glass fiber, washed and radioactivity determined (Liang and Liao, 1992).

[2] = molecular target: T1, 5α-Reductase of Rat Liver Microsomes
Method: (§1) Briefly, the binding assay solution, in a final volume of 0.15 ml, contained microsomes (2-20 μg of protein), 0.08 μCi of [^3 H]4-MA, 0.1 mM-NADPH, 1 mM-dithiothreitol and 50 mM-potassium phosphate, pH 7.0, with or without the indicated amount of a lipid or an inhibitor preparation. Lipids were dissolved in ethanol and added in 1-5 μl volumes. Control tubes received the same amount of ethanol. After incubation at 0° C. for 1 h, the [^3 H]4-MA bound to microsomes was determined by collecting microsomes on a Whatman GF/1F glass fibre filter and washing with 10 ml of 20 mM-potassium phosphate, pH 7.0, containing 0.01% CHAPS to remove unbound [^3 H]4-MA.
(§2) Microsomes were prepared at 4° C. from a buffered 0.32M-sucrose homogenate of human liver and from the livers of adult Sprague-Dawley female rats by differential centrifugation as described previously (Liang et al., 1990), and were used in the assay of 5α-reductase activity. In some experiments, microsomes were solubilized with 0.1% polyoxyethylene ether W-1 as described previously (Liang et al., 1990), except for the substitution of polyoxyethylene ether W-1 for Lubrol-WX.

hamster flank organ = test: Flank organ, castrated immature male hamsters, topical treatment; format: in vivo, Syrian golden hamster; conditions: for Percent Inhibition / Pigmented macule Right (+T): Table 5, T 0.5 μg + fatty acid 1 mg; for Percent Inhibition / Pigmented macule Right (+T) / Pigmented macule Left: 21 days; for Pigmented macule Right (+T): T alone 49.6 ± 8.3; for Pigmented macule Left: Table 5, fatty acid 1 mg without T; for inhibition of T-induced growth of pigmented macule: hamster, in vivo; for effect on the contralateral flank organ: topical to right flank organ
Method: One to two weeks after castration, the hair on the lower back of each animal was clipped with an electric hair clipper and then shaved weekly to expose the flank organs. The animals were divided into 5 animals/treatment group. A treatment solution (5 μl) was applied topically to the right flank organ once a day using a Pipetteman and a polypropylene disposable tip. Unless specified the left flank organ was not treated. The treatment solution contained either (a) ethanol alone (vehicle and control), (b) an androgen (T or 5α-DHT), (c) a fatty acid, or (d) a combination of an androgen and a fatty acid. The flank organ was wiped with an alcohol pad to remove residual compound before each treatment. […] The flank organs, both the treated and untreated sides, were evaluated with methods to be described below to determine the effect of these treatments of the growth of the pigmented macules and the sebaceous glands. The body weight of each animal was recorded before and after treatment.
The data are presented as mean ± standard deviation. […]

[3] = molecular target: T1, 5α-Reductase of Rat Liver Microsomes; test: biochemical; conditions: for inhibition at 5 µM: read-out: % Inhibition of [^3 H]4-MA binding, Table 2, 5 μM
Method: as §1, §2

[4] = read-out: % Inhibition of [^3 H]4-MA binding, Table 1, 10 μM
[5] = read-out: % Inhibition of [^3 H]4-MA binding, Table 1, 40 μM
[6] = read-out: % Inhibition of [^3 H]4-MA binding, Table 1, 200 μM
[7] = read-out: % Inhibition of [^3 H]4-MA binding, Table 2, 10 μM
[8] = read-out: % Inhibition of [^3 H]4-MA binding, Table 2, 40 μM
[9] = read-out: % Inhibition of [^3 H]4-MA binding, Table 2, 200 μM
[10] = read-out: % Inhibition of [^3 H]4-MA binding

Oc1cc(O)c2c(c1)O[C@@H](c1cc(O)c(O)c(O)c1)[C@H](O)C2 [(-)Gallocatechin]
inhibition at 5 µM [1]: < 10% | inhibition at 10 µM [1]: < 10% | inhibition at 20 µM [1]: < 10% | inhibition at 40 µM [1]: < 10% | inhibition at 200 µM [1]: < 10%

CCCCC[C@H](O)/C=C/[C@H]1C=CC(=O)[C@@H]1CCCCCCC(=O)O [prostaglandin A1]
inhibitory activity in [^3 H]4-MA binding assay ([2]; 0.2 mM): somewhat active

CC/C=C\C/C=C\C/C=C\CCCCCCCC(=O)O [α-Linolenic acid, α-linolenic acid]
Percent Inhibition (hamster flank organ): 44% | Pigmented macule Right (+T) (hamster flank organ): 27.6 ± 8.2 mm^2 | Pigmented macule Left (hamster flank organ): 4.1 ± 1.2 mm^2 | inhibition of T-induced growth of pigmented macule (hamster flank organ): less active than γ-LA | inhibition at 10 µM [3, 4]: 19 ± 3% | inhibition at 40 µM [3, 5]: 27 ± 7% | inhibition at 200 µM [3, 6]: 84 ± 6% | inhibition at 5 µM [3]: < 10% | inhibition at 10 µM [3, 7]: 19% | inhibition at 40 µM [3, 8]: 27% | inhibition at 200 µM [3, 9]: 84%

Cn1c(=O)c2c(ncn2C)n(C)c1=O [Caffeine, reference compound]
inhibitory activity [1]: not active

CC1=C(/C=C/C(C)=C/C=C/C(C)=C/C(=O)O)C(C)(C)CCC1 [retinoic acid]
inhibitory activity in [^3 H]4-MA binding assay [2]: inactive

CCCCC[C@H](O)/C=C/[C@@H]1[C@H]2C/C(=C/CCCC(=O)O)O[C@H]2C[C@H]1O [Prostaglandin 12]
inhibitory activity in [^3 H]4-MA binding assay [2]: not active

CCCCC[C@H](O)/C=C/[C@H]1C(=O)C[C@H](O)[C@@H]1C/C=C\CCCC(=O)O [prostaglandin D2]
inhibitory activity in [^3 H]4-MA binding assay ([2]; 0.2 mM): somewhat active

CCCCC[C@H](O)/C=C/[C@H]1C=CC(=O)[C@@H]1C/C=C\CCCC(=O)O [prostaglandin A2]
inhibitory activity in [^3 H]4-MA binding assay ([2]; 0.2 mM): somewhat active

CCCCCCCCCCCCCCCC(=O)O [Palmitic acid]
Percent Inhibition (hamster flank organ): 25% | Pigmented macule Right (+T) (hamster flank organ): 37.2 ± 6.3 mm^2 | Pigmented macule Left (hamster flank organ): 5.1 ± 2.9 mm^2 | inhibition of T-induced growth of pigmented macule (hamster flank organ): Weak inhibitions | inhibition at 200 µM [3, 6]: < 10% | inhibition at 200 µM [3, 9]: < 10%

O=C(O[C@H]1Cc2c(O)cc(O)cc2O[C@@H]1c1ccc(O)c(O)c1)c1cc(O)c(O)c(O)c1 [CG, (-)Catechin-3-gallate]
inhibition at 5 µM [1]: 12% | inhibition at 10 µM [1]: 31% | inhibition at 20 µM [1]: 53% | inhibition at 40 µM [1]: 73% | inhibition at 200 µM [1]: 91% | IC50 ([1]; type 1 5α-reductase of rat liver microsomes, read-out: IC50): 18 µM

O=c1c(O)c(-c2ccc(O)c(O)c2)oc2cc(O)cc(O)c12 [quercetin, reference compound]
inhibitory activity [1]: inactive

C[C@]12CC[C@H]3[C@@H](CCC4=CC(=O)CC[C@@]43C)[C@@H]1CC[C@@H]2O [T, Testosterone, reference compound]
Pigmented Macule, Untreated (L) (hamster flank organ; Table 4, T 0.5 μg alone, 18 days): 3.6 ± 0.5 mm^2 | effect on the contralateral flank organ (hamster flank organ): no detectable effect

Oc1cc(O)c2c(c1)O[C@H](c1ccc(O)c(O)c1)[C@@H](O)C2 (relative stereo) [(±)Catechin]
inhibition at 5 µM ([1]; Table 8, 5 μM): < 10% | inhibition at 10 µM ([1]; Table 8, 10 μM): < 10% | inhibition at 20 µM ([1]; Table 8, 20 μM): < 10% | inhibition at 40 µM ([1]; Table 8, 40 μM): < 10% | inhibition at 200 µM ([1]; Table 8, 200 μM): < 10%

CCCCCCCC/C=C\CCCCCCCC(=O)O [Oleic acid]
Percent Inhibition (hamster flank organ): 43% | Pigmented macule Right (+T) (hamster flank organ): 28.1 ± 8.3 mm^2 | Pigmented macule Left (hamster flank organ): 4.7 ± 0.5 mm^2 | inhibition of T-induced growth of pigmented macule (hamster flank organ): active | IC50 [3]: 128 µM | inhibition at 10 µM [3, 4]: < 10% | inhibition at 40 µM [3, 5]: 16 ± 6% | inhibition at 200 µM [3, 6]: 63 ± 12% | inhibition at 5 µM [3]: < 10% | inhibition at 10 µM [3, 7]: < 10% | inhibition at 40 µM [3, 8]: 16% | inhibition at 200 µM [3, 9]: 63%

CCCCC/C=C\C/C=C\CCCCCCCC(=O)O [Linoleic acid]
Percent Inhibition (hamster flank organ): 52% | Pigmented macule Right (+T) (hamster flank organ): 23.9 ± 5.0 mm^2 | Pigmented macule Left (hamster flank organ): 5.4 ± 1.6 mm^2 | inhibition of T-induced growth of pigmented macule (hamster flank organ): active | IC50 [3]: 117 µM | inhibition at 10 µM [3, 4]: < 10% | inhibition at 40 µM [3, 5]: 12 ± 3% | inhibition at 200 µM [3, 6]: 86 ± 4% | inhibition at 10 µM [3, 7]: < 10% | inhibition at 40 µM [3, 8]: 12% | inhibition at 200 µM [3, 9]: 86%

C[C@]12CCC(=O)C[C@@H]1CC[C@@H]1[C@@H]2CC[C@]2(C)[C@@H](O)CC[C@@H]12 [5α-DHT, 5α-dihydrotestosterone, reference compound]
effect on the contralateral flank organ (hamster flank organ): no detectable effect

naphthaflavone [reference compound]
inhibitory activity [1]: inactive

CCCCC/C=C\C/C=C\C/C=C\C/C=C\CCCC(=O)O [Arachidonic acid]
Percent Inhibition (hamster flank organ): 28% | Pigmented macule Right (+T) (hamster flank organ): 35.7 ± 7.9 mm^2 | Pigmented macule Left (hamster flank organ): 4.7 ± 1.6 mm^2 | inhibition of T-induced growth of pigmented macule (hamster flank organ): Weak inhibitions | IC50 [3]: 65 µM | inhibition at 10 µM [3, 4]: < 10% | inhibition at 40 µM [3, 5]: 30 ± 10% | inhibition at 200 µM [3, 6]: 88 ± 5% | inhibition at 10 µM [3, 7]: < 10% | inhibition at 40 µM [3, 8]: 30% | inhibition at 200 µM [3, 9]: 88%

CCCCCCCC/C=C\CCCCCCCC(=O)OC [Oleic acid methyl ester]
inhibition at 40 µM [3, 10]: < 10% | inhibition at 200 µM [3, 10]: < 10%

CCCCC/C=C\C/C=C\C/C=C\CCCCCCC(=O)Cl [homo-γ-linolenoyl chloride]
IC50 [3]: > 200 µM

CCCC/C=C\CCCCCCCCCCCC(=O)O [13-Octadecenoic Acid, 13-octadecenoic acid]
IC50 [3]: 93 µM | inhibition at 5 µM [3]: < 10% | inhibition at 10 µM [3, 7]: < 10% | inhibition at 40 µM [3, 8]: < 10% | inhibition at 200 µM [3, 9]: 57%

CCCCCCCCCCCCCCCCCCCC(=O)Cl [Arachidoyl Chloride, archidoyl chloride]
IC50 [3]: > 200 µM | inhibition at 10 µM [3, 7]: < 10% | inhibition at 40 µM [3, 8]: < 10% | inhibition at 200 µM [3, 9]: < 10%

CCCCCCCC/C=C\CCCCCCCCCCCCC(=O)O [14-Tricosenoic Acid, 14 tricosenoic acid]
IC50 [3]: > 200 µM | inhibition at 5 µM [3]: < 10% | inhibition at 10 µM [3, 7]: < 10% | inhibition at 40 µM [3, 8]: < 10% | inhibition at 200 µM [3, 9]: 36%

CCCCC/C=C\C/C=C\CCCCCCCC(=O)OC [Linoleic acid methyl ester]
inhibition at 40 µM [3, 10]: < 10% | inhibition at 200 µM [3, 10]: < 10%

CCCCC/C=C\C/C=C\C/C=C\CCCCCCC(=O)OC [methyl homo-γ-linolenate]
IC50 [3]: > 200 µM

CCCCCC/C=C\CCCCCCCCO [Palmitoleyl alcohol]
inhibition at 40 µM [3, 10]: < 10% | inhibition at 200 µM [3, 10]: 16 ± 4%

CCCCC/C=C\C/C=C\C/C=C\C/C=C\CCCCCC(=O)O
IC50 [3]: 46 µM | inhibition at 5 µM [3]: < 10% | inhibition at 10 µM [3, 7]: < 10% | inhibition at 40 µM [3, 8]: 41% | inhibition at 200 µM [3, 9]: 79%

CC/C=C\C/C=C\C/C=C\C/C=C\C/C=C\C/C=C\CCCO [cis4,7,10,13,,16,19-docosahexenol]
inhibition at 200 µM [3, 10]: 51%

CC/C=C\C/C=C\C/C=C\CCCCCCCCCC(=O)O [11,14,17-cis-Eicosatrienoic Acid, 11,14,17-eicosatrienoic acid]
IC50 [3]: 29 µM | inhibition at 5 µM [3]: < 10% | inhibition at 10 µM [3, 7]: 1% | inhibition at 40 µM [3, 8]: 78% | inhibition at 200 µM [3, 9]: 94%

CCCCCCC=CCCCCCCCCC(=O)OC [methyl 10-heptadecenoate]
IC50 [3]: > 200 µM

CCCCC/C=C\C/C=C\CCCCCCCCCC(=O)OC [11,14-cis-Eicosadienoate, methyl 11,14 eicosadienoate]
IC50 [3]: > 200 µM | inhibition at 5 µM [3]: < 10% | inhibition at 10 µM [3, 7]: < 10% | inhibition at 40 µM [3, 8]: < 10% | inhibition at 200 µM [3, 9]: < 10%

Oc1cc(O)c2c(c1)O[C@H](c1ccc(O)c(O)c1)[C@@H](O)C2 [(+)Catechin]
inhibition at 5 µM ([1]; Table 8, 5 μM): < 10% | inhibition at 10 µM ([1]; Table 8, 10 μM): < 10% | inhibition at 20 µM ([1]; Table 8, 20 μM): < 10% | inhibition at 40 µM ([1]; Table 8, 40 μM): < 10% | inhibition at 200 µM ([1]; Table 8, 200 μM): < 10%
